Data set [1] can be described thus: Stability in liver microsome of mice. The class given is in vitro ADME. The settings on record: Mouse liver microsome 0.5 mg protein/mL, compound 1 μM, 37° C.; for half-life at 1 μM / microsomal CLint at 1 μM: liver microsomes. How it is done:
Assay 1: Stability assessment of the compounds of the present invention in liver microsome of mice and dogs
Test substances: the compounds of the present invention, wherein the structures and preparations thereof were as described above.
The composition of the incubation system:
Preparation of Test Substances:
An appropriate amount of the compound was accurately weighed and dissolved in DMSO to prepare a 5.0 mM stock solution. The 5.0 mM stock solution was diluted to 1.0 mM with DMSO, and finally diluted with water to a 10 μM test substance working solution for use (the DMSO content in the reaction system was 0.1%).
(1) The liver microsome (20 mg protein/mL) was taken out from the −80° C. refrigerator, pre-incubated at 37° C. with a water-bathing constant temperature vibrator for 3 minutes, and melted for use.
(2) A mixed solution of the incubation system (excluding compounds and β-NADPH) according to the above “composition of the incubation system” for the assay was prepared, and pre-incubated at 37° C. with a water-bathing constant temperature vibrator for 2 minutes.
(3) Control group (excluding β-NADPH): 30 μL of water and 30 μL of compound working solution (10 μM) were added to 240 μL of the mixed solution of the incubation system of step (2), and vortexed for 30 seconds to mix well. The total reaction volume was 300 μL. A duplicate sample was prepared. The sample was incubated at 37° C. with a water-bathing constant temperature vibrator. The timekeeping began and the sampling time points were set at 0 minute and 60 minutes.
(4) Sample group: 70 μL of β-NADPH solution (10 mM) and 70 μL of compound working solution (10 μM) were added to 560 μL of the mixed solution of step (2). The total reaction volume was 700 μL. The resulting mixture was vortexed for 30 seconds to mix well. A duplicate sample was prepared. The sample was incubated at 37° C. with a water-bathing constant temperature vibrator. The timekeeping began and the sampling time points were set at 0 minute, 5 minutes, 10 minutes, 20 minutes, 30 minutes, and 60 minutes after timekeeping.
(5) After vortexing for 3 minutes, the sample was centrifuged at 4000 rpm for 10 minutes.
(6) 50 μL of the supernatant was taken and 150 μL of water was added. The resulting mixture was vortexed to mix well, and analyzed by LC/MS/MS.
The half-life (t1/2) and clearance rate (Cl) were calculated using the following first-order kinetic formula:
Vd=1/protein content in liver microsome
Note: k was the slope of the logarithm of the remaining amount of the compound versus time, and Vd was the apparent distribution volume.

The nature of another data set: Rat PK evaluation. To be noted: SD rats; for Vz_obs iv (apparent distribution volume) / bioavailability / AUC(0-t) / clearance / half-life: n = 3; for bioavailability / AUC(0-t) / clearance / half-life / Tmax: rat, plasma; for bioavailability: read-out: F % (absolute bioavailability); for clearance: read-out: Cl_obs iv (clearance rate) (converted); for Tmax: n = 3, median, read-out: Tmax po (time to peak plasma concentration). The class given is in vivo. Here is the method: Assay 2: Rat PK Evaluation for the Compounds of the Present Invention
Animal Administration and Sample Collection:
The test compounds 14, 15, 16, 20, 29, 30, 31, 32, 33, 34, 36, 37, 47 and 48 were dissolved in 5% DMSO+20% (30% solutol)+75% saline to prepare the compound solutions. Each of the compound solutions was intragastrically administered to SD rats at a dose of 5.0 mg/kg. The time points of blood collection were: 15 minutes, 30 minutes, 1 hour, 2 hours, 4 hours, 6 hours, 8 hours, 24 hours, 30 hours, and 48 hours.
The test compounds 38, 39, 40 and 41 were dissolved in 5% NMP+5% Tween-80+90% saline to prepare the compound solutions. Each of the compound solutions was intragastrically administered to SD rats at a dose of 5.0 mg/kg. The time points of blood collection were: 15 minutes, 30 minutes, 1 hour, 2 hours. 4 hours, 6 hours, 8 hours, 24 hours, 30 hours, and 48 hours.
The test compounds 14, 15, 16, 20, 29, 30, 31, 32, 33, 34, 36, 37, 47 and 48 were dissolved in 5% DMSO+20% (30% solutol)+75% saline to prepare the compound solutions. Each of the compound solutions was administered by intravenous bolus injection to SD rats at a dose of 1 mg/kg. The time points of blood collection were: 5 minutes, 15 minutes, 30 minutes, 1 hour, 2 hours, 4 hours, 6 hours, 8 hours, 24 hours, and 48 hours.
The test compounds 38, 39, 40 and 41 were dissolved in 5% NMP+5% Tween-80+90% saline to prepare the compound solutions. Each of the compound solutions was administered by intravenous bolus injection to SD rats at a dose of 1 mg/kg. The time points of blood collection were: 5 minutes, 15 minutes, 30 minutes, 1 hour, 2 hours, 4 hours, 6 hours, 8 hours, 24 hours, and 48 hours.
The animal was fixed. The tail was heated in a water bath pot 10 minutes before each time point. About 100 μL of blood was collected through the tail vein. The blood was collected and placed in an anti-coagulation tube containing EDTA-K2. The blood sample was centrifuged at 8000 rpm for 6 minutes at 4° C. to obtain a plasma sample. The plasma was prepared within 30 minutes after the blood collection. The plasma was stored in a −80° C. refrigerator before testing.
The sample to be tested was taken out from the −80° C. refrigerator, naturally melted at room temperature and vortexed for 5 minutes. 20 μL of plasma sample was accurately pipetted into a 1.5 mL centrifuge tube. 200 μL of an internal standard working solution (a solution of tolbutamide in methanol) having a concentration of 100 ng/mL was added and mixed well. The mixture was vortexed for 5 minutes, and centrifuged at 12000 rpm for 5 minutes. 50 μL of the supernatant was accurately pipetted into a 96-well plate pre-filled with 150 μL/well of water. The plate was vortexed for 5 minutes and mixed well, and then the LC-MS/MS determination and analysis were performed.
The concentration of the test substance was output using Analyst 1.6.3 from AB Company. Parameters such as mean, standard deviation, and coefficient of variation were calculated with Microsoft Excel (direct outputs from Analyst 1.6.3 were not calculated), and the PK parameters were calculated using Pharsight Phoenix 6.1 software NCA (Tmax was the median).

Where [2] appears, read: IV 1 mg/kg, read-out: AUClast iv (area under the drug-time curve from 0 to 48 hours).
Where [3] appears, read: IV 1 mg/kg, read-out: tz1/2 iv (terminal elimination half-life) (converted).
Setting [4] is: PO 5 mg/kg, read-out: AUClast po (area under the drug-time curve from 0 to 48 hours).
[5] abbreviates: PO 5 mg/kg, read-out: tz1/2 po (terminal elimination half-life) (converted).

The values below come from patent US20220073496A1, “NOVEL QUINOLINE DERIVATIVE INHIBITOR” (Nanjing Transthera Biosciences Co., Ltd., priority 2018, published 2022).

Read-outs that look alike come from different tables or passages of the source.

As to `COc1cc2nccc(Oc3cnc(NC(=O)c4cn(C(C)C)cc(-c5ccc(F)cc5)c4=O)nc3)c2cc1OC` [Compound 20, N-(5-((6,7-dimethoxyquinolin-4-y)oxy)pyrimidine-2-yl)-5-(4-fluorophenyl)-1-isopropyl-4-oxo-1,4-dihydropyridin-3-carboxamide], in data set [1], the half-life at 1 μM turned out to be 5.5 h and the microsomal CLint at 1 μM was 4.2 µL/min/mg. In addition, in the data set “Rat PK evaluation” (IV 1 mg/kg), the “Vz_obs iv (apparent distribution volume)” value was 0.18 L/kg and the clearance is 0.667 mL/min/kg. The bioavailability in “Rat PK evaluation” (IV 1 mg/kg, PO 5 mg/kg) was 53.3%. In “Rat PK evaluation” (setting [2]), the AUC(0-t) was found to be 29100 ng·h/mL. Further, in “Rat PK evaluation” (setting [3]), the half-life was 3.1 h. Also, the Tmax in the data set “Rat PK evaluation” (PO 5 mg/kg) was determined as 6 h. Moreover, the AUC(0-t) in “Rat PK evaluation” (setting [4]) worked out at 77900 ng·h/mL. Besides, the half-life in “Rat PK evaluation” (setting [5]) was 5.4 h.

Turning to `COc1cc2nccc(Oc3cnc(NC(=O)c4nn(C5CC5)cc(-c5ccc(F)cc5)c4=O)nc3)c2cc1OC` [Compound 33], in data set [1], the half-life at 1 μM came out at 2.75 h and the microsomal CLint at 1 μM was 8.4 µL/min/mg. Besides, in “Rat PK evaluation” (IV 1 mg/kg), the “Vz_obs iv (apparent distribution volume)” value is recorded as 0.146 L/kg and the clearance is 0.3 mL/min/kg. In “Rat PK evaluation” (IV 1 mg/kg, PO 5 mg/kg), the bioavailability is 31.7%. The AUC(0-t) in “Rat PK evaluation” (setting [2]) worked out at 55700 ng·h/mL. In “Rat PK evaluation” (setting [3]), the half-life was 5.47 h. For the same compound, in “Rat PK evaluation” (PO 5 mg/kg), the Tmax was 2 h. For the same compound, the AUC(0-t) in the data set “Rat PK evaluation” (setting [4]) was 88800 ng·h/mL. The half-life in the data set “Rat PK evaluation” (setting [5]) is 4.73 h.

As to `COc1cc2nccc(Oc3cnc(NC(=O)c4cn(C5CC5)nc(-c5ccc(F)cc5)c4=O)nc3)c2cc1OC` [Compound 45, 2-cyclopropyl-N-(5-((6,7-dimethoxyquinolin-4-yl)oxy)pyrimidine-2-yl)-6-(4-fluorophenyl)-5-oxo-2,5-dihydropyridazine-4-carboxamide], in data set [1], the half-life at 1 μM amounted to 3.3 h and the microsomal CLint at 1 μM turned out to be 7 µL/min/mg.

As to `COc1cc2nccc(Oc3ccc(NC(=O)c4cn(C(C)C)nc(-c5ccc(F)cc5)c4=O)cn3)c2cc1OC` [Compound 38, N-(6-((6,7-dimethoxyquinolin-4-yl)oxy)pyridin-3-yl)-6-para-fluorophenyl-2-isopropyl-5-oxo-2,5-dihydropyridazine-4-carboxamide], the “Vz_obs iv (apparent distribution volume)” value in “Rat PK evaluation” (IV 1 mg/kg) was 3.32 L/kg. Further, the bioavailability in the data set “Rat PK evaluation” (IV 1 mg/kg, PO 5 mg/kg) amounted to 81.6%. For the same compound, the AUC(0-t) in the data set “Rat PK evaluation” (setting [2]) worked out at 6000 ng·h/mL; in the data set “Rat PK evaluation” (setting [4]), 25500 ng·h/mL. In the data set “Rat PK evaluation” (IV 1 mg/kg), the clearance was 2.5 mL/min/kg. Moreover, the half-life in the data set “Rat PK evaluation” (setting [3]) is 15.2 h; in the data set “Rat PK evaluation” (setting [5]) it was 12.1 h. Moreover, the Tmax in the data set “Rat PK evaluation” (PO 5 mg/kg) is 4 h.

In the case of `COc1cc2nccc(Oc3ccc(NC(=O)c4cn(C(C)C)nc(-c5ccc(F)cc5)c4=O)nc3)c2cc1OC` [Compound 41, N-(5-((6,7-dimethoxyquinolin-4-yl)oxy)pyridin-2-yl)-6-(4-fluorophenyl)-2-isopropyl-5-oxo-2,5-dihydropyridazine-4-carboxamide], the “Vz_obs iv (apparent distribution volume)” value in the data set “Rat PK evaluation” (IV 1 mg/kg) came to 6.81 L/kg. In “Rat PK evaluation” (IV 1 mg/kg, PO 5 mg/kg), the bioavailability came to 103%. For the same compound, the values for the AUC(0-t) in the data set “Rat PK evaluation” (setting [2]) and in “Rat PK evaluation” (setting [4]) were 2750 ng·h/mL and 14400 ng·h/mL, respectively. In addition, the clearance in the data set “Rat PK evaluation” (IV 1 mg/kg) was 5.83 mL/min/kg. In addition, the half-life in “Rat PK evaluation” (setting [3]) is 14.1 h; in the data set “Rat PK evaluation” (setting [5]) it was 13.7 h. In addition, in “Rat PK evaluation” (PO 5 mg/kg), the Tmax came out at 4 h.

On to `COc1cc2nccc(Oc3cnc(NC(=O)c4nn(C(C)C)cc(-c5ccc(F)cc5)c4=O)nc3)c2cc1OC` [Compound 16, N-(5-((6,7-dimethoxyquinolin-4-yl)oxy)pyrimidine-2-yl)-5-(4-fluorophenyl)-1-isopropyl-4-oxo-1,4-dihydropyridazine-3-carboxamide], for which the half-life at 1 μM in data set [1] is 1.63 h. For the same compound, in data set [1], the microsomal CLint at 1 μM was found to be 14.2 µL/min/mg. Also, in the data set “Rat PK evaluation” (IV 1 mg/kg), the “Vz_obs iv (apparent distribution volume)” value came out at 0.12 L/kg. The bioavailability in the data set “Rat PK evaluation” (IV 1 mg/kg, PO 5 mg/kg) was found to be 35.6%. Moreover, the AUC(0-t) in the data set “Rat PK evaluation” (setting [2]) stood at 48600 ng·h/mL; in “Rat PK evaluation” (setting [4]) it was 86400 ng·h/mL. In “Rat PK evaluation” (IV 1 mg/kg), the clearance is 0.35 mL/min/kg. The half-life in the data set “Rat PK evaluation” (setting [3]) was 4.13 h; in the data set “Rat PK evaluation” (setting [5]) it was 5.67 h. Moreover, in “Rat PK evaluation” (PO 5 mg/kg), the Tmax worked out at 1 h.

With `COc1cc2nccc(Oc3ccc(NC(=O)c4cn(C5CC5)nc(-c5ccc(F)cc5)c4=O)cn3)c2cc1OC` [Compound 43, 2-cyclopropyl-N-(6-((6,7-dimethoxyquinolin-4-yl)oxy)pyridin-3-yl)-6-para-fluorophenyl-5-oxo-2,5-dihydropyridazine-4-carboxamide], in data set [1], the half-life at 1 μM was determined as 10.5 h and the microsomal CLint at 1 μM turned out to be 2.2 µL/min/mg.

Take `COc1cc2nccc(Oc3ccc(NC(=O)c4nn(C5CC5)cc(-c5ccc(C)cc5)c4=O)nc3)c2cc1OC` [Compound 46, 1-cyclopropyl-N-(5-((6,7-dimethoxyquinolin-4-yl)oxy)pyridin-2-yl)-4-oxo-5-p-tolyl-1,4-dihydropyridazine-3-carboxamide]: the t1/2 entry in data set [1] is listed as “→∞”.

Regarding `COc1cc2nccc(Oc3ccc(NC(=O)c4cn(C5CC5)nc(-c5ccc(F)cc5)c4=O)nc3)c2cc1OC` [Compound 42, 2-cyclopropyl-N-(5--((6,7-dimethoxyquinolin-4-yl)oxy)pyridin-2-yl)-6-(4-fluorophenyl)-5-oxo-2,5-dihydropyridazine-4-carboxamide], the t1/2 entry in data set [1] is on record as “→∞”.

As for `COc1cc2nccc(Oc3ccc(NC(=O)c4cn(C(C)C)cc(-c5ccc(C)cc5)c4=O)nc3)c2cc1OC` [Compound 1, N-(5-((6,7-dimethoxyquinolin-4-yl)oxy)pyridin-2-yl)-1-isopropyl-4-oxo-5-p-tolyl-1,4-dihydropyridin-3-carboxamide], in data set [1], the half-life at 1 μM was 1.27 h and the microsomal CLint at 1 μM worked out at 18.2 µL/min/mg.
